# Residues, ends and D or L forms follow the SMILES beside them. *: point of attachment. Cbz = O=C(OCc1ccccc1)*; CH2Cl = ClC*; CH2F = FC*
# Key:
# [1] = molecular target: Fibroblast growth factor receptor 2 (Homo sapiens) (UniProt P21802); conditions: Compound concentration 20.0 uM
# Description: Thermal Shift Assay. Domain: start/stop: T457-E768
# [2] = molecular target: T1, Peregrin (Homo sapiens) (UniProt P55201); conditions: Compound concentration 20.0 uM
# T1 sequence (whole entry): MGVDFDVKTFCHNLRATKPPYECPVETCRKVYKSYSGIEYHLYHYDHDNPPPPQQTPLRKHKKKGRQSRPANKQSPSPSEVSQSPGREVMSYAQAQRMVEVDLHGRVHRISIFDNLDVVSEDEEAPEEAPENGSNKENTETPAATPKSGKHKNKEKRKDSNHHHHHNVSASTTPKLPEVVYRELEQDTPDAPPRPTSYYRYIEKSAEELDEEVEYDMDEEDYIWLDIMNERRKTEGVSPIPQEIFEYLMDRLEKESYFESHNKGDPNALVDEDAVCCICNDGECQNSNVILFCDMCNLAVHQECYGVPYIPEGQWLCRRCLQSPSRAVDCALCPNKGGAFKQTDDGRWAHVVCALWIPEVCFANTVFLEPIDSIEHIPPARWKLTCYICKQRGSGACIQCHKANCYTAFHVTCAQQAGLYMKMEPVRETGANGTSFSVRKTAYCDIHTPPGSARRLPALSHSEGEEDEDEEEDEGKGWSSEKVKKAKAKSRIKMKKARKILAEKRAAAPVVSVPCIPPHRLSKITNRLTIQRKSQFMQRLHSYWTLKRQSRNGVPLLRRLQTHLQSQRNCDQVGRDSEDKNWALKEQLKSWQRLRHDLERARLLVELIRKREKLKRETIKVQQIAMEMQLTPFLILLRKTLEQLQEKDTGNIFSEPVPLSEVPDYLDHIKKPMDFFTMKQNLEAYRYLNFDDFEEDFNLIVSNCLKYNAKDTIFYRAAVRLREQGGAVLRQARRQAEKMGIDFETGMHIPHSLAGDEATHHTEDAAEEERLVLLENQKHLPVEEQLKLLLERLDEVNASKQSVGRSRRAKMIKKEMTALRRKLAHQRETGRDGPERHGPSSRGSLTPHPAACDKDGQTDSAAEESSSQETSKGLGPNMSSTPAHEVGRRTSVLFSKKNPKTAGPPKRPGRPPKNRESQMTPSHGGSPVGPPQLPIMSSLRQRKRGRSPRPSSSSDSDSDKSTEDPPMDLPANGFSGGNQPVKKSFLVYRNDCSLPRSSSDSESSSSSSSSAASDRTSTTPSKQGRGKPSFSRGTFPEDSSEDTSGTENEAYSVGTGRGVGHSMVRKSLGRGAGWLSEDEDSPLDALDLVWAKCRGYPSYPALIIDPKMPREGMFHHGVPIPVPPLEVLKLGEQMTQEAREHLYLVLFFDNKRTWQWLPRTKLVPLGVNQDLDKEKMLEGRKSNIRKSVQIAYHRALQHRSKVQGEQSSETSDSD
# Sequence of Fibroblast growth factor receptor 2 (Homo sapiens) (P21802 22-821 limits assumed): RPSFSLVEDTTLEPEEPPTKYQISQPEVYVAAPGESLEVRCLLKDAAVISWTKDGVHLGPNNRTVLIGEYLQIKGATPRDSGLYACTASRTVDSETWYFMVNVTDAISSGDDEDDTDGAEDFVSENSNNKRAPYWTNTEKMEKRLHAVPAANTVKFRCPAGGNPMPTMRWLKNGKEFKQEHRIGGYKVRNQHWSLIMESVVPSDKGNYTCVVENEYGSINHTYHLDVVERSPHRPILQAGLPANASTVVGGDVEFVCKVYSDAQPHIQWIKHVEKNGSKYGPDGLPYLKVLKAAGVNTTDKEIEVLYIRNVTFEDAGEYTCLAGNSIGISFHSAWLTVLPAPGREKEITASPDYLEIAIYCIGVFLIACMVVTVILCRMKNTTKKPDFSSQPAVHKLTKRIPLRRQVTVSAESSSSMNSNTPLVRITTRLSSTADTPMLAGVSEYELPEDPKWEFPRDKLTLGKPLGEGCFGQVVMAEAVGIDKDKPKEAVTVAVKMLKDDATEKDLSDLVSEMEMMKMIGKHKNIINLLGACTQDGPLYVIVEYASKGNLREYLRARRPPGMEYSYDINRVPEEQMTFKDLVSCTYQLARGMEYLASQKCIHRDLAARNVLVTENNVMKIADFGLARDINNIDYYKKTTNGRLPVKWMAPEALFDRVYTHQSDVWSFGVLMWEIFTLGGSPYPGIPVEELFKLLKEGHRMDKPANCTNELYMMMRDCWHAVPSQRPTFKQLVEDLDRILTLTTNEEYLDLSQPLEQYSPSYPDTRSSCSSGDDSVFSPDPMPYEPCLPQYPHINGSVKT
SMILES,ΔTm [1],ΔTm [2]
CC(=O)O[C@]1(C(C)=O)CC[C@H]2[C@@H]3CCC4=CC(=O)CCC4=C3[C@@H](c3ccc(N(C)C)cc3)C[C@@]21C,-0.06 °C,-2.65 °C
O=[N+]([O-])c1cc(O)c(O)c([N+](=O)[O-])c1,0.52 °C,2.24 °C
Cc1nnn(C)c1-c1cnc2c3cc4cnn(C)c4cc3n([C@H](c3ccccc3)C3CCOCC3)c2c1,-0.32 °C,-0.09 °C
CCCOC(=O)N1CCN(C(=O)c2ccc3c(Cl)cc(-c4ccc(C5(N)CC5)cc4)nc3c2)C[C@H]1C,-0.58 °C,-1.27 °C
CCC(=O)N1CCOc2c(cc(-c3cc(OC)cc(OC)c3)cc2C(=O)N[C@H]2CCCN(C)C2)C1,0.29 °C,-0.83 °C
CC(C)[C@@H]1NC(=O)[C@H](Cc2ccc(O)cc2)NC(=O)[C@@H](CC(=O)O)NC(=O)S[C@@H](C(=O)O)NC(=O)[C@H]([C@H](C)O)NC(=O)[C@H](Cc2ccc(O)cc2)NC(=O)[C@H](Cc2c[nH]c3ccccc23)NC(=O)[C@H](CCCNC(=N)N)NC(=O)[C@H](Cc2c[nH]c3ccccc23)NC(=O)[C@H](C)NC(=O)[C@H](CO)NC(=O)[C@H](CCCNC(=N)N)NC(=O)[C@H]([C@H](C)O)NC(=O)[C@H](CC(N)=O)NC(=O)[C@H](Cc2ccc(O)cc2)NC1=O,0.32 °C,1.38 °C
CNCc1ccc(-c2cc3cc(F)cc(C(N)=O)c3o2)cc1,0.56 °C,1.32 °C
N[C@@H](CCNCc1ccc(Cl)cc1)C(=O)N1CCCCC1,-0.56 °C,0.85 °C
Cc1noc2c1-c1ccccc1C(c1ccc(Cl)cc1)=N[C@H]2CC(N)=O,-0.03 °C,2.09 °C
c1ccc(Cn2c(-c3ccc(OC[C@H](C4CCNCC4)n4c(-c5ccccc5)nc5ccccc54)cc3)nc3ccccc32)cc1,-8.18 °C,-5.25 °C
C/C(=N\NC(=O)c1cccc(S(=O)(=O)N2CCOCC2)c1)c1cc(Cl)ccc1O,-0.21 °C,2.44 °C
Cc1ncc(Cl)cc1NCc1ccc(C(=O)N[C@@H](CC2CCCC2)C(=O)NC2CC2)s1,1.09 °C,-0.65 °C
Cc1cc(OCCCNCC(C)(C)C(N)=O)ccc1Cc1c(O[C@@H]2O[C@H](CO)[C@@H](O)[C@H](O)[C@H]2O)n[nH]c1C(C)C,-0.15 °C,1.07 °C
CN(CC[C@@H](Oc1ccc(-c2ccccc2)cc1)c1ccc(F)cc1)CC(=O)O,0.18 °C,-0.36 °C
CCCCCn1c(C)c(C(=O)c2cccc3ccccc23)c2ccccc21,0.39 °C,2.08 °C
CC(C)N(CCCNC(=O)Nc1ccc(C(C)(C)C)cc1)C[C@H]1O[C@@H](n2ccc3c(N)ncnc32)[C@H](O)[C@@H]1O,0.6 °C,-2.69 °C
NC(=O)C1CN(CCCCC(c2ccc(F)cc2)c2ccc(F)cc2)CCN1CC(=O)Nc1c(Cl)cc(N)cc1Cl (stereo unspecified),-9.38 °C,-3.73 °C
COc1cc(C)[nH]c(=O)c1CNC(=O)c1c(C)n([C@H](C)C2CCN(CC(F)(F)F)CC2)c2ccccc12,0.91 °C,-1.59 °C
O=c1c2nnc(C3CCOCC3)n2cc(Br)n1CC1CCCC1,-0.26 °C,-0.41 °C
CS(=O)(=O)Nc1ccc2oc3c(OC(F)F)ccc(C(=O)Nc4c(Cl)cncc4Cl)c3c2c1,-0.38 °C,0.46 °C
Nc1ccc(-c2cccs2)cc1NC(=O)c1ccc2nc(N3CCNCC3)ccc2c1,0.98 °C,0.96 °C
Cc1n[nH]c(C)c1Cc1sc2c(c1C(=O)N1C[C@H](O)CO1)c(=O)n(C)c(=O)n2CC(C)C,0.22 °C,2.27 °C
CC(C)C(=O)SCCCCCCC(=O)Nc1nc(-c2ccccc2)cs1,1.03 °C,-1.14 °C
Cc1ccc(C)c(-n2sc3cc(F)ccc3c2=O)c1,-0.26 °C,-11.8 °C
O=C1Cc2cc(C(=O)N[C@@H]3C[C@H]4CC[C@@H](C3)N4S(=O)(=O)CC3CCN(CCCC(F)(F)F)CC3)c(Cl)cc2N1,-0.16 °C,-0.66 °C
Cc1ncsc1-c1ccc([C@H](C)NC(=O)[C@@H]2C[C@@H](O)CN2C(=O)[C@@H](NC(=O)CNC(=O)c2ccc(F)c(-c3ccc(N4C[C@@H](C)N(C)[C@@H](C)C4)c(NC(=O)c4c[nH]c(=O)cc4C(F)(F)F)c3)c2)C(C)(C)C)cc1,-4.38 °C,-0.15 °C
CC(=O)N[C@@H](Cc1ccccc1)C(=O)N[C@@H](CC(C)C)C(=O)N[C@H](C(=O)N[C@@H](CC(=O)O)C(=O)CCl)[C@@H](C)O (Ac-FLTD-CH2Cl),0.77 °C,-1.18 °C
COC(=O)CC[C@H](NC(=O)[C@H](Cc1c[nH]c2ccccc12)NC(=O)OCc1ccccc1)C(=O)N[C@@H](Cc1cnc[nH]1)C(=O)N[C@@H](CC(=O)OC)C(=O)CF (Cbz-WE(OMe)HD(OMe)-CH2F),0.1 °C,-1.05 °C
